Article PMC3150631 (Nature, 2011)

Biological target: T1, UCP2 (mouse mitochondrial uncoupling protein 2) (Mus musculus, UniProt P70406)
T1 sequence (P70406 14-309): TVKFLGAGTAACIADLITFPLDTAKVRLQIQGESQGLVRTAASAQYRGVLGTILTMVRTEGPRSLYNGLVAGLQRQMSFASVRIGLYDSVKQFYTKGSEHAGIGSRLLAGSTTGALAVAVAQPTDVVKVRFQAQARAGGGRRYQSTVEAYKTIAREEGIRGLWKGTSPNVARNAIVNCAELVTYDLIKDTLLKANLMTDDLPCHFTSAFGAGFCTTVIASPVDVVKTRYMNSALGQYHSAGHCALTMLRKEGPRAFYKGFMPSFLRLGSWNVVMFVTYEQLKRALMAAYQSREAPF
Assay: proton translocation in liposomes
Type: biochemical
Details: fatty-acid activated; inhibitor

Nc1nc2c(ncn2[C@@H]2O[C@H](COP(=O)(O)OP(=O)(O)O)[C@@H](O)[C@H]2O)c(=O)[nH]1 [GDP]
proton translocation in liposomes: it showed fatty-acid activated and GDP-inhibited proton translocation activity
